Columns and labels:
E coli = conditions: in solution, after only 30 seconds; cited from earlier work
E. coli = conditions: dispersed for 15 sec, no corona discharge applied
Text: An agar place of bacterial (containing colonies of 10^5 E. coli) was placed on top of a grounded metal plate.

SMILES	log reduction in E coli (E coli) [log]	disinfection of E. coli on agar plate (E. coli)
[H]/N=C(\N/C(=N/[H])NCCCCCCNC(=N)NC(=N)Nc1ccc(Cl)cc1)Nc1ccc(Cl)cc1 [chlorhexidine]	3.5	
CCO [alcohol, ethanol]		some spotty effects

From patent US20170202218A1, “Materials for Disinfection Produced by Non-Thermal Plasma” (DREXEL UNIVERSITY, priority 2010, published 2017)
